According to US12391724B2, “Polypodoside sweet flavor modifier” (Firmenich Incorporated, priority 2019, dated 2025):

Tests used:
T1R2/T1R3 receptor = target: T1, T1R2/T1R3 receptor (Homo sapiens, UniProt Q7RTX0+Q8TE23); test: activation of the T1R2/T1R3 receptor; assay type: cell-based
T1 sequence (Q8TE23 20-839): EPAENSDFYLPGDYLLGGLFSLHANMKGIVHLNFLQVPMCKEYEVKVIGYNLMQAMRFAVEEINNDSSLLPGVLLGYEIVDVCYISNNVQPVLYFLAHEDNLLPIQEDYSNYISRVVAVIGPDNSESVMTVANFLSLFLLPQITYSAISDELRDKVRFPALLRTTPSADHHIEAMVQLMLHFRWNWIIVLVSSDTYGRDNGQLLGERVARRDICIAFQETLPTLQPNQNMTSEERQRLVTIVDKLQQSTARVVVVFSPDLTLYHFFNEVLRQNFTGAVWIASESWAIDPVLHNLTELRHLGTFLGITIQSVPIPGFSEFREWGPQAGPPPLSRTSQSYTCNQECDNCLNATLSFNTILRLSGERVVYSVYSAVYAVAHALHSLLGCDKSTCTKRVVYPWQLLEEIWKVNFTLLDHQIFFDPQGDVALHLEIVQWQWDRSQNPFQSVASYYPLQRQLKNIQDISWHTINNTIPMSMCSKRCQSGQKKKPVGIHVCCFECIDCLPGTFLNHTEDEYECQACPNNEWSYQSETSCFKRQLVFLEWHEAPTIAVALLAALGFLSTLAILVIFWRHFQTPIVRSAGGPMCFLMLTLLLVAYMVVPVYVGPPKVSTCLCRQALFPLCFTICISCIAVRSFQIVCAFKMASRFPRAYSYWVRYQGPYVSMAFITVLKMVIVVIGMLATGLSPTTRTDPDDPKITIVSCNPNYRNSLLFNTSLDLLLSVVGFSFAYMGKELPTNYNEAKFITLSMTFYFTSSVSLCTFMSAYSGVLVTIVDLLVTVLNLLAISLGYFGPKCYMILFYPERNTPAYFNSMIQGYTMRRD
T1 sequence (Q7RTX0 21-852): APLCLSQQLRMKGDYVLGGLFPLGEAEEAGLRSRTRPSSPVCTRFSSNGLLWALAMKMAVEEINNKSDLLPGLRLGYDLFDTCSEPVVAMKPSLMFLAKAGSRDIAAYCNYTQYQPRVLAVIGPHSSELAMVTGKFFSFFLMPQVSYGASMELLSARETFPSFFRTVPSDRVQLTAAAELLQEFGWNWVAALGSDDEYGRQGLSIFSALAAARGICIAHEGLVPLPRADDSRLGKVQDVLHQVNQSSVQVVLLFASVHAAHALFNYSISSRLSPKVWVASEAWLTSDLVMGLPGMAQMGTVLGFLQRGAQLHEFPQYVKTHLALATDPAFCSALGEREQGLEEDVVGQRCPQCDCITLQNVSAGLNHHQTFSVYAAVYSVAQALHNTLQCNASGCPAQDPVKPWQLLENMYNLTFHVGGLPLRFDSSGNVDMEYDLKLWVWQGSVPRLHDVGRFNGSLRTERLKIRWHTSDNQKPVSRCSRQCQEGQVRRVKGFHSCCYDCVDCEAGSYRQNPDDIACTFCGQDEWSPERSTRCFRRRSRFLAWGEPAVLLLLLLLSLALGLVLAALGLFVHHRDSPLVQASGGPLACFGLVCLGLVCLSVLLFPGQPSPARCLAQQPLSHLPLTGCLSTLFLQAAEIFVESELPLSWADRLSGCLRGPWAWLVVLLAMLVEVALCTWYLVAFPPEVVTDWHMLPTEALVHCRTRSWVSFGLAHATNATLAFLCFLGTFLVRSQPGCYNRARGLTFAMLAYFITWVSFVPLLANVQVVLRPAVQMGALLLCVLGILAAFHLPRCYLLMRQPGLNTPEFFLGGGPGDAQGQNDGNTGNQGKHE
Description: The present isolated compounds have been tested and shown sweet taste modifying activities.

[1] = system: human panelists (sweetness); test: paired comparison (2-AFC) taste test for sweetness with human panelists; assay type: in vivo
Experimental: Test samples containing experimental compounds were presented in pairs to the human panelist and they were asked to determine which of the sample is sweeter. […] A group of 10-16 or more panelists participated in each test. Subjects refrained from eating or drinking (except water) for at least 1 hour prior to the test. Subjects rinsed with water several times to clean the mouth.
Taste tests were performed with sucrose or HFCS as the sweetener in the presence or absence of compound. A 0.2% stock solution of compound in water with sodium bicarbonate was prepared and then this stock solution was diluted in the final sample to achieve the targeted final concentration of compound. For the sample evaluated at pH 2.8 the pH of the solution is decreased to about pH 2.8 using citric acid. Taste samples were also prepared in a low sodium phosphate buffer (pH 7.1; “LSB”) lacking sucrose or HFCS to evaluate the taste of the compound alone. Low sodium phosphate buffer consists of 0.3 mM KCl, 0.5 mM Na2HPO4, and 0.175 mM KH2PO4. Sample volumes are usually 20 ml.
In one paired comparison test, the panelist was presented with two different samples and asked to identify the sample which is sweeter. The samples within a paired comparison test were presented in a randomized, counterbalanced order. Panelists had up to a 1 minute delay between taste tests to clear the mouth of any tastes.
Binomial probability tables were used to determine the probability of the correct number of responses occurring for each test at alpha=0.05
Paired comparison taste test for sweetness (0.25 mL sample size)

[2] = 4% sucrose vs 0% sucrose + 100 ppm compound, pH 7.1, total 36
[3] = 4% sucrose vs 0% sucrose + 125 ppm compound, pH 7.1, total 42
[4] = 4% sucrose vs 0% sucrose + 150 ppm compound, pH 7.1, total 36
[5] = 4% sucrose vs 0% sucrose + 87 ppm compound, LSB pH 7.1, total 42

COCC(C1CCC(C)C(OC2OC(C)C(O)C(O)C2O)O1)C1CCC2C3=CC(=O)C4CC(OC5OC(CO)C(O)C(O)C5O)CCC4(C)C3CCC21C (centres unmarked) [Polypodoside E]
EC50 (T1R2/T1R3 receptor): 18.4 µM

CC1CCC(C(C)C2CCC3C4=CC(=O)C5CC(OC6OC(CO)C(OC7OC(C)C(O)C(O)C7O)C(O)C6O)CCC5(C)C4CCC32C)OC1OC1OC(C)C(O)C(O)C1O (centres unmarked) [Polypodoside G]
EC50 (T1R2/T1R3 receptor): 18.7 µM

C=C1C[C@@]23CC[C@H]4[C@@](C)(CCC[C@@]4(C)C(=O)O[C@@H]4O[C@H](CO)[C@@H](O)[C@H](O)[C@H]4O)[C@@H]2CC[C@]1(O[C@@H]1O[C@H](CO)[C@@H](O)[C@H](O[C@@H]2O[C@H](CO)[C@@H](O)[C@H](O)[C@H]2O)[C@H]1O[C@@H]1O[C@H](CO)[C@@H](O)[C@H](O)[C@H]1O)C3 [Reb A, Rebaudioside A]
concentration equivalent to 4% sucrose ([1]; 2-AFC, pH 7.1): 125 ppm Reb A is equivalent to 4% sucrose. | Sample selected as sweeter by panelists: 0% Sucrose + Cmpd [1, 2]: 8 | Sample selected as sweeter by panelists: 4% Sucrose [1, 2]: 28 | Sample selected as sweeter by panelists: 0% Sucrose + Cmpd [1, 3]: 22 | Sample selected as sweeter by panelists: 4% Sucrose [1, 3]: 20 | Sample selected as sweeter by panelists: 0% Sucrose + Cmpd [1, 4]: 24 | Sample selected as sweeter by panelists: 4% Sucrose [1, 4]: 12

Polypodoside D
EC50 (T1R2/T1R3 receptor): 4.15 µM | Sample selected as sweeter by panelists: 0% Sucrose + Cmpd [1, 5]: 18 | Sample selected as sweeter by panelists: 4% Sucrose [1, 5]: 24 | sweetness of 4% Sucrose compared with the sample (in words) ([1]; 4% sucrose vs LSB + 87 ppm compound, pH ~7.1): not significantly different in sweetness | sweet taste and potency in sensory studies (in words) ([1]; compared with Rebaudioside A): has a sweet taste and demonstrates higher potency than Rebaudioside A
